Reference: PubChem BioAssay AID1963440 (Molecular Pharmacology Branch, DTP, NCI, 2024)
Values joined by “and” are separate entries in the source; they are usually repeats but may differ in a detail not shown here. Identical values can stand only once.

Test system: NCI-H1417 complex spheroids, growth % test/control
Test: Anticancer human tumor NCI-H1417 cell line growth inhibition [Asc];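 also: spheroids exposed to compounds for 7 days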;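 as to viability, T/C: 100% = DMSO vehicle control wells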
Conditions: for viability, T/C: stronger effect = lower value
Summary of the method: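 Complex solid-tumor spheroids incorporating human endothelial and mesenchymal stem cells received single agents or combinations over half-log dilution ranges anchored to clinical Cmax.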

[1] = curve of first compound, second compound 0.1 µM
[2] = curve of first compound, second compound 0.316 µM
[3] = curve of first compound, second compound 1 µM

Question: For `CCN1C(C(=O)NC23CCC(C(=O)O)(CC2)CC3)C(c2cccc(Cl)c2F)C2(C(=O)Nc3cc(Cl)ccc32)C12CCCCC2` (configuration not stated) + CNC(C)C(=O)NC1CN(S(=O)(=O)c2cccc(S(=O)(=O)N3CCC4CCC(C(=O)NC(c5ccccc5)c5ccccc5)N4C(=O)C(NC(=O)C(C)NC)C3)c2)CCC2CCC(C(=O)NC(c3ccccc3)c3ccccc3)N2C1=O, which IC50 (curve of first compound, second compound 0.01 µM) is on record?
Answer: > 3 µM

Question: And the IC50 (curve of first compound, second compound 0.0316 µM)?
Answer: > 3 µM

Question: What about the IC50 [1] of the same compound?
Answer: > 3 µM

Question: And the IC50 [2]?
Answer: > 3 µM

Question: What about the IC50 [3] of the same compound?
Answer: > 3 µM

Question: And the viability, T/C (second compound 0.01 µM, first compound 0.00949 µM)?
Answer: 105%

Question: What about the viability, T/C (second compound 0.01 µM, first compound 0.03 µM) of the same compound?
Answer: 104%

Question: And the viability, T/C (second compound 0.01 µM, first compound 0.0949 µM)?
Answer: 105%

Question: What about the viability, T/C (second compound 0.01 µM, first compound 0.3 µM) of the same compound?
Answer: 99.7%

Question: And the viability, T/C (second compound 0.01 µM, first compound 0.949 µM)?
Answer: 106%

Question: What about the viability, T/C (second compound 0.01 µM, first compound 3 µM) of the same compound?
Answer: 120%

Question: What about the viability, T/C (second compound 0.0316 µM, first compound 0.00949 µM) of the same compound?
Answer: 107%

Question: What about the viability, T/C (second compound 0.0316 µM, first compound 0.03 µM) of the same compound?
Answer: 118%

Question: And the viability, T/C (second compound 0.0316 µM, first compound 0.0949 µM)?
Answer: 106%

Question: And the viability, T/C (second compound 0.0316 µM, first compound 0.3 µM)?
Answer: 86%

Question: What about the viability, T/C (second compound 0.0316 µM, first compound 0.949 µM) of the same compound?
Answer: 101%

Question: What about the viability, T/C (second compound 0.0316 µM, first compound 3 µM) of the same compound?
Answer: 96.2%

Question: What about the viability, T/C (second compound 0.1 µM, first compound 0.00949 µM) of the same compound?
Answer: 103%

Question: And the viability, T/C (second compound 0.1 µM, first compound 0.03 µM)?
Answer: 102%

Question: And the viability, T/C (second compound 0.1 µM, first compound 0.0949 µM)?
Answer: 99.7%

Question: And the viability, T/C (second compound 0.1 µM, first compound 0.3 µM)?
Answer: 88.6%

Question: And the viability, T/C (second compound 0.1 µM, first compound 0.949 µM)?
Answer: 95.7%

Question: What about the viability, T/C (second compound 0.1 µM, first compound 3 µM) of the same compound?
Answer: 120%

Question: And the viability, T/C (second compound 0.316 µM, first compound 0.00949 µM)?
Answer: 105%

Question: What about the viability, T/C (second compound 0.316 µM, first compound 0.03 µM) of the same compound?
Answer: 95.1%

Question: And the viability, T/C (second compound 0.316 µM, first compound 0.0949 µM)?
Answer: 105%

Question: And the viability, T/C (second compound 0.316 µM, first compound 0.3 µM)?
Answer: 102%

Question: What about the viability, T/C (second compound 0.316 µM, first compound 0.949 µM) of the same compound?
Answer: 104%

Question: What about the viability, T/C (second compound 0.316 µM, first compound 3 µM) of the same compound?
Answer: 108%

Question: And the viability, T/C (second compound 1 µM, first compound 0.00949 µM)?
Answer: 110%

Question: What about the viability, T/C (second compound 1 µM, first compound 0.03 µM) of the same compound?
Answer: 108%

Question: And the viability, T/C (second compound 1 µM, first compound 0.0949 µM)?
Answer: 106%

Question: What about the viability, T/C (second compound 1 µM, first compound 0.3 µM) of the same compound?
Answer: 108%

Question: And the viability, T/C (second compound 1 µM, first compound 0.949 µM)?
Answer: 95.4%

Question: What about the viability, T/C (second compound 1 µM, first compound 3 µM) of the same compound?
Answer: 106%

Question: What does the source list for `O=C(c1cc(Cc2n[nH]c(=O)c3ccccc23)ccc1F)N1CCN(C(=O)C2CC2)CC1`?
Answer: viability, T/C (compound 0.0316 µM): 96.7% and 102% and 86.3%; viability, T/C (compound 0.1 µM): 106% and 90.7% and 91.3%; viability, T/C (compound 0.316 µM): 89.8% and 84.6% and 86.3%; viability, T/C (compound 1 µM): 80.9% and 84.3% and 99.2%; viability, T/C (compound 3.16 µM): 56.5% and 56.2% and 71%; viability, T/C (compound 10 µM): 38.3% and 24.6% and 36%; IC50 (curve of compound): 4.83 µM and 4.2 µM and 6.31 µM

Question: `O=C(c1ccc(F)c(F)c1Nc1ccc(I)cc1F)N1CC(O)([C@@H]2CCCCN2)C1` + Cc1c(S(C)(=O)=O)c(-c2cc(F)cc(N3CCN(c4ccc(NS(=O)(=O)c5ccc(NC(CCN6CCC(C(=O)OCCCP(=O)(O)O)CC6)CSc6ccccc6)c(S(=O)(=O)C(F)(F)F)c5)cc4)CC3)c2)c(-c2ccc(Cl)cc2)n1C(C)C was tested. Which IC50 [1] did it give?
Answer: > 1 µM

Question: What about the IC50 [2] of the same compound?
Answer: < 0.00316 µM

Question: And the IC50 [3]?
Answer: < 0.00316 µM

Question: What about the IC50 (curve of first compound, second compound 3.16 µM) of the same compound?
Answer: < 0.00316 µM

Question: And the IC50 (curve of first compound, second compound 10 µM)?
Answer: < 0.00316 µM

Question: What about the viability, T/C (second compound 0.1 µM, first compound 0.00316 µM) of the same compound?
Answer: 84.2%

Question: And the viability, T/C (second compound 0.1 µM, first compound 0.01 µM)?
Answer: 81.2%

Question: What about the viability, T/C (second compound 0.1 µM, first compound 0.0316 µM) of the same compound?
Answer: 80.8%

Question: And the viability, T/C (second compound 0.1 µM, first compound 0.1 µM)?
Answer: 83.7%

Question: And the viability, T/C (second compound 0.1 µM, first compound 0.316 µM)?
Answer: 71.5%

Question: What about the viability, T/C (second compound 0.1 µM, first compound 1 µM) of the same compound?
Answer: 59.1%

Question: What about the viability, T/C (second compound 0.316 µM, first compound 0.00316 µM) of the same compound?
Answer: 46.5%

Question: And the viability, T/C (second compound 0.316 µM, first compound 0.01 µM)?
Answer: 50.1%

Question: And the viability, T/C (second compound 0.316 µM, first compound 0.0316 µM)?
Answer: 44.7%

Question: And the viability, T/C (second compound 0.316 µM, first compound 0.1 µM)?
Answer: 37.9%

Question: What about the viability, T/C (second compound 0.316 µM, first compound 0.316 µM) of the same compound?
Answer: 28.8%

Question: And the viability, T/C (second compound 0.316 µM, first compound 1 µM)?
Answer: 33.4%

Question: And the viability, T/C (second compound 1 µM, first compound 0.00316 µM)?
Answer: 13.9%

Question: And the viability, T/C (second compound 1 µM, first compound 0.01 µM)?
Answer: 11.9%

Question: And the viability, T/C (second compound 1 µM, first compound 0.0316 µM)?
Answer: 10.4%

Question: What about the viability, T/C (second compound 1 µM, first compound 0.1 µM) of the same compound?
Answer: 5.1%

Question: And the viability, T/C (second compound 1 µM, first compound 0.316 µM)?
Answer: 2.22%

Question: And the viability, T/C (second compound 1 µM, first compound 1 µM)?
Answer: 2.04%

Question: And the viability, T/C (second compound 3.16 µM, first compound 0.00316 µM)?
Answer: 2.87%

Question: What about the viability, T/C (second compound 3.16 µM, first compound 0.01 µM) of the same compound?
Answer: 2.41%

Question: And the viability, T/C (second compound 3.16 µM, first compound 0.0316 µM)?
Answer: 2.22%

Question: And the viability, T/C (second compound 3.16 µM, first compound 0.1 µM)?
Answer: 0.97%

Question: And the viability, T/C (second compound 3.16 µM, first compound 0.316 µM)?
Answer: 0.48%

Question: And the viability, T/C (second compound 3.16 µM, first compound 1 µM)?
Answer: 0.27%

Question: And the viability, T/C (second compound 10 µM, first compound 0.00316 µM)?
Answer: 2.15%

Question: And the viability, T/C (second compound 10 µM, first compound 0.01 µM)?
Answer: 1.85%

Question: And the viability, T/C (second compound 10 µM, first compound 0.0316 µM)?
Answer: 1.55%

Question: What about the viability, T/C (second compound 10 µM, first compound 0.1 µM) of the same compound?
Answer: 0.9%

Question: And the viability, T/C (second compound 10 µM, first compound 0.316 µM)?
Answer: 1.3%

Question: And the viability, T/C (second compound 10 µM, first compound 1 µM)?
Answer: 0.32%
